The text below walks through data of PubChem BioAssay (NCI).

Some test systems named below: SK-MEL-28 melanoma; NCI-H460 lung; NCI-H23 lung; CAKI-1 renal; ACHN renal; OVCAR-8 ovarian; HT29 colon; A549 NSCLC; HOP-62 NSCLC; U251 CNS.
Common to all, as to assay: NCI tumour cell line growth inhibition, 48 h

Where “and” joins values, the source holds several entries; their conditions need not be identical. Identical values can stand only once.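 Values below derive from 48-hour exposures of cells grown in 96-well plates, with endpoints linearly interpolated between the two concentrations bracketing the appropriate inhibition level. GI50 = concentration required for 50% inhibition of growth. TGI denotes the concentration required for complete inhibition of growth.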

In the case of `Fc1ccc(C2CC(c3cccc(Nc4ccncc4)c3)=NN2c2cc(Cl)cc(Cl)c2)cc1` (centres undefined), the GI50 was 1.74 µM in the assay with SK-MEL-28 melanoma; 1.87 µM with NCI-H460 lung; 1.7 µM with NCI-H23 lung; 1.54 µM in the assay on CAKI-1 renal; 1.66 µM in the assay on ACHN renal; 2.2 µM in the assay with OVCAR-8 ovarian. The TGI was determined as 3.31 µM in the assay with SK-MEL-28 melanoma; 3.55 µM with NCI-H460 lung; 3.19 µM with NCI-H23 lung; 2.92 µM in the assay on CAKI-1 renal; 3.02 µM in the assay with ACHN renal; 4.77 µM with OVCAR-8 ovarian.
For the compound `COC(=O)c1nc(-c2ccc3c(n2)C(=O)C(N)=C(OC)C3=O)c(N)c(-c2ccc(OC)c(OC)c2O)c1C`, the TGI with HT29 colon is 4.43 µM; with SK-MEL-28 melanoma, 2.77 µM; in the assay with NCI-H23 lung, 1.38 µM; in the assay on CAKI-1 renal it was 3.28 µM; in the assay with A549 NSCLC, 2.76 µM; in the assay with HOP-62 NSCLC it was 0.487 µM. The compound also came in with a TGI in the assay on U251 CNS of 2.37 µM.
In the case of `COc1ccc(C[C@H](N)C(=O)N2C[C@H](CO)C[C@H](n3ccc(=O)[nH]c3=O)C2)cc1`, the TGI in the assay on HT29 colon, in the assay on SK-MEL-28 melanoma, in the assay on NCI-H460 lung, in the assay on NCI-H23 lung, with CAKI-1 renal and in the assay with A549 NSCLC was above 100 µM in each case. In addition, the TGI with ACHN renal, in the assay on OVCAR-8 ovarian, in the assay on HOP-62 NSCLC and in the assay with U251 CNS was above 100 µM in each case.
As to `CC(=O)OCc1cc(=O)n(C)c2c3c4c(cc12)c(C)cc(=O)n4CO3`, the TGI in the assay on HT29 colon came to 8.81 µM; with SK-MEL-28 melanoma, 3.42 µM; in the assay on NCI-H460 lung, 5.74 µM; in the assay with NCI-H23 lung, 5.01 µM; in the assay with CAKI-1 renal it was 33.9 µM; in the assay on A549 NSCLC, 21.1 µM. Besides, the figures for the TGI in the assay with OVCAR-8 ovarian, in the assay with HOP-62 NSCLC and with U251 CNS were 12.7 µM, 4.3 µM and 26.6 µM, respectively.
As to `[N-]=[N+]=NC1CC(n2cc(COCC(F)(F)F)c(=O)[nH]c2=O)OC1CO` (centres undefined), the TGI in the assay with HT29 colon, in the assay on SK-MEL-28 melanoma, in the assay on NCI-H460 lung, with NCI-H23 lung, in the assay with CAKI-1 renal and in the assay with A549 NSCLC was above 100 µM throughout. Further, the TGI with ACHN renal, with OVCAR-8 ovarian, in the assay on HOP-62 NSCLC and in the assay with U251 CNS was above 100 µM in each case.
In the case of `CN(C)CCOC(=O)c1ccc(N)cc1`, the TGI was above 100 µM in the assay with HT29 colon; 67.5 µM in the assay on SK-MEL-28 melanoma; above 100 µM in the assay with NCI-H460 lung; above 100 µM with NCI-H23 lung; above 100 µM in the assay on CAKI-1 renal; above 100 µM with A549 NSCLC. The TGI in the assay with ACHN renal, in the assay on OVCAR-8 ovarian, in the assay with HOP-62 NSCLC and in the assay with U251 CNS was above 100 µM throughout.
For the compound `O=C1c2ccccc2C(=O)c2c1ccc1c2N=C(c2ccc(F)cc2)CC(c2ccc(Cl)c(Cl)c2)N1` (centres undefined), the TGI in the assay with HT29 colon was determined as 26.3 µM; in the assay with SK-MEL-28 melanoma it was 36 µM; in the assay with NCI-H460 lung, 43 µM; with NCI-H23 lung, 33.4 µM; in the assay with CAKI-1 renal, 17 µM; with A549 NSCLC, 47.6 µM. The TGI in the assay on ACHN renal was 27.8 µM; with OVCAR-8 ovarian, 26.6 µM; in the assay on HOP-62 NSCLC, 58.2 µM; in the assay with U251 CNS it was 24.7 µM.
`C[C@@H]1C[C@]2(C[C@@H](C)[C@H]3C(C[C@@]4(C)CCC[C@@H]5C6=C[C@H](CCC34C)OC6=CC(=O)OC5(C)C)O2)OC1=O` (some centres undefined): the TGI in the assay with HT29 colon, with NCI-H460 lung, in the assay with NCI-H23 lung, in the assay with CAKI-1 renal, in the assay on A549 NSCLC and in the assay on OVCAR-8 ovarian was above 51.5 µM each time. The TGI in the assay with HOP-62 NSCLC and in the assay on U251 CNS was above 51.5 µM in each case.
`CCOC(=O)c1c2c(n3ccc(NC(=O)OC(C)(C)C)cc13)C(=O)c1ncccc1C2=O`: the GI50 with HT29 colon is 0.638 µM; in the assay on SK-MEL-28 melanoma it was 0.232 µM; with NCI-H460 lung, 0.0273 µM; in the assay with NCI-H23 lung, 0.147 µM; with CAKI-1 renal, 0.0389 µM; in the assay on A549 NSCLC it was 0.186 µM. Further, the GI50 in the assay with OVCAR-8 ovarian is 0.148 µM; with HOP-62 NSCLC it was 0.143 µM; in the assay on U251 CNS, 0.0465 µM. In addition, the TGI in the assay with HT29 colon amounted to 2.22 µM; with SK-MEL-28 melanoma, 1.4 µM; with NCI-H460 lung, 0.123 µM; in the assay on NCI-H23 lung, 0.669 µM; with CAKI-1 renal, 1.58 µM; with A549 NSCLC, 1.25 µM. The figures for the TGI with OVCAR-8 ovarian, with HOP-62 NSCLC and in the assay with U251 CNS were 2.09 µM, 0.7 µM and 1.25 µM, respectively.
As for `CN(C)CCCNc1c2ccccc2nc2cccc([N+](=O)[O-])c12`, the GI50 in the assay on SK-MEL-28 melanoma is 0.0202 µM; in the assay with CAKI-1 renal, below 0.001 µM; in the assay on OVCAR-8 ovarian, below 0.001 µM; with HOP-62 NSCLC, 0.0222 µM. Further, the TGI with SK-MEL-28 melanoma was 0.00689 µM and 0.0422 µM; in the assay on NCI-H460 lung, 0.00781 µM; in the assay with A549 NSCLC it was 0.0121 µM and 0.0944 µM; in the assay with U251 CNS, 0.0143 µM.
On to `CSc1nc(NC2OCC(O)C(O)C2O)c(N)c(=O)n1C` (centres undefined), for which the TGI in the assay on HT29 colon, in the assay on SK-MEL-28 melanoma, in the assay with NCI-H460 lung, with NCI-H23 lung, with A549 NSCLC and in the assay on OVCAR-8 ovarian was above 100 µM each time. In addition, the TGI in the assay on HOP-62 NSCLC and in the assay with U251 CNS was above 100 µM each time.
`Cc1cc(N=Cc2c(CO)cnc(C)c2O)c(N=Cc2c(CO)cnc(C)c2O)cc1C.[Zn]`: the TGI with HT29 colon, with SK-MEL-28 melanoma, with NCI-H460 lung, in the assay with CAKI-1 renal, in the assay with A549 NSCLC and in the assay with ACHN renal was above 100 µM throughout. Besides, the TGI with OVCAR-8 ovarian, in the assay on HOP-62 NSCLC and in the assay with U251 CNS was above 100 µM throughout.
